We go through 24 compounds from US20070032521A1, “Use of c-kit inhibitors for treating type II diabetes” (AB Science, priority 2003, published 2007).

Some results are limits rather than exact numbers.

The target of data set [1] is T1, purified intracellular domain of c-kit (Homo sapiens, UniProt P10721).
T1 construct: purified intracellular domain of c-kit expressed in baculovirus; made in house
Description: in vitro TK inhibition assay (ELISA, phosphorylation of tyrosine containing target peptide). The conditions noted are these: purified intracellular domain of c-kit expressed in baculovirus. In kind it is biochemical. The method, then: in vitro TK Inhibition Assays
Experiments were performed using purified intracellular domain of c-kit expressed in baculovirus. Estimation of the kinase activity was assessed by the phosphoiylation of tyrosine containing target peptide estimated by established ELISA assay.
(In general: ELISA stands for enzyme-linked immunosorbent assay.)

Another data set concerns male db/db mice. Description: Effect of c-kit inhibitors on serum glucose, insulin, triglycerides, cholesterol and NEFA levels in db/db mice. In kind it is in vivo, mouse. The text has this: Effect of different c-kit inhibitors on serum glucose, insulin, triglycerides, cholesterol and non esterified fatty acids levels in db/db mice
The objective of this study is to assess the effects of different c-kit inhibitors on serum glucose, insulin, triglycerides, cholesterol and non esterified fatty acids levels in male db/db mice dosed orally, once-a-day, for 5 days.
30 male 9/11 weeks old C57BL/Ks J Rj-db (db/db) mice (Janvier, France or Harlan, France), weighing in the target range of 30 to 50 g, will be included in this study.
One to three days before beginning the treatments (T0), mice will be weighed and blood samples will be collected through the retro-orbital plexus under isoflurane anesthesia. Blood samples will be kept at room temperature for 5 to 10 min to form a spontaneous clot, then put in ice until they are centrifuged at 3500×g for 10-15 min at 4° C. An aliquot of serum will be used for measuring glucose levels.
Six groups of 5 mice will be formed with respect to homogeneous glycemia values by using a randomization table. Animal showing glycemia below 20 mM will be excluded from the study.
From T1 to T5, the mice will be weighed and dosed once daily for 5 consecutive days at constant time.
At T5, 2 hours after the last administration, blood samples will be collected through the retro-orbital plexus under isoflurane anesthesia. Blood samples will be kept at room temperature for 5 to 10 min to form a spontaneous clot, then put in ice until they are centrifuged at 3500×g for 10 min at 4° C. Serum will be aliquoted and frozen at −20° C. until use. After blood collection, the mice will be euthanized by cervical dislocation.
Serum glucose and triglycerides levels will be determined using the Synchron C×4 analyzer. Serum non esterified fatty acids levels will be measured manually using a colorimetric method, and insulin levels determined by ELISA.
The results will be expressed as mean±SEM: • Glucose levels (mM) at T5 • Insulin levels (nM) at T5 • Triglycerides levels (mM) at T5 • Non esterified fatty acids levels (mM) at T5
For each parameter, a % of effect will be calculated according to following formula: ((vehicle group−test group)/vehicle group)*100
Statistical analysis will consist in a one-way analysis of variance followed by multiple comparisons versus the vehicle group (Dunnett's test). In case the equal variance test fails, a Kruskall-Wallis one-way analysis of variance on ranks will be proposed. A difference will be considered significant for p<0.05.

Setting [2] is: as compared to vehicle, 10 mg/kg p.o. for 5 days.
Setting [3] is: serum, male db/db mice, 10 mg/kg p.o. once daily for 5 days, T5, mean ± SEM, n = 5.

T1 sequence (P10721 546-976 limits assumed): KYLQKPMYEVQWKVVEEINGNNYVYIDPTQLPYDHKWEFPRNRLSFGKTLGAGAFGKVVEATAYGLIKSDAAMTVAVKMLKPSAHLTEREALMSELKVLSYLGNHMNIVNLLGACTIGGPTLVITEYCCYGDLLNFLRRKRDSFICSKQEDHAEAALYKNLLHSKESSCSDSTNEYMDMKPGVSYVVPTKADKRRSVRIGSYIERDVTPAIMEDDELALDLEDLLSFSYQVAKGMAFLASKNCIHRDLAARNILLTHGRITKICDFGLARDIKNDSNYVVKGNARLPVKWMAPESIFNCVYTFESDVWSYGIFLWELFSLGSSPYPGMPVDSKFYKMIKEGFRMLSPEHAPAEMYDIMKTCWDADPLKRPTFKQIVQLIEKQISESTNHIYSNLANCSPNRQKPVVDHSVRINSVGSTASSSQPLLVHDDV

As a reminder, the IC50 is the concentration that inhibits the measured activity by half. The low end stands for greater potency, the high end for weaker potency. Consider `Cc1cncc(-c2csc(Nc3cc(NC(=O)c4ccc(CN5CCN(C)CC5)cc4)ccc3C)n2)c1` [Compound 084, N-{4-Methyl-3-[4-(5-methyl-pyridin-3-yl)-thiazol-2-ylamino]-phenyl}-4-(4-methyl-piperazin-1-ylmethyl)-benzamide], for which the IC50 in data set [1] is less than 10 µM.

`Cc1ccc(NC(=O)c2ccc(CNC(=O)OC(C)(C)C)cc2)cc1Nc1nc(-c2cccnc2)cs1` [Compound 073, {4-[4-Methyl-3-(4-pyridin-3-yl-thiazol-2-ylamino)-phenylcarbamoyl]-benzyl}-carbamic acid tert-butyl ester]: the IC50 in data set [1] was less than 10 µM.

As for `Cc1ccc(NC(=O)c2ccc(N(C)C)cc2)cc1Nc1nc(-c2cccnc2)cs1` [Compound 047, 4-Dimethylamino-N-[4-methyl-3-(4-pyridin-3-yl-thiazol-2-ylamino)-phenyl]-benzamide], the 50% inhibitory concentration (IC50) in data set [1] is less than 10 µM.

For orientation: melting point means the temperature of the solid-liquid transition. Regarding `Cc1ccc(NC(=O)c2cccc(F)c2)cc1Nc1nc(-c2cccnc2)cs1` [Compound 045, 3-Fluoro-N-[4-methyl-3-(4-pyridin-3-yl-thiazol-2-ylamino)-phenyl]-benzamide], the melting point is 184 to 186 °C.

In data set [1], `Cc1ccc(NC(=O)N(C(=O)NC2CCCCC2)C2CCCCC2)cc1Nc1nc(-c2cccnc2)cs1` [Compound 016, 1-Cyclohexyl-1-(N-Cyclohexyl-formamide)-3-[4-methyl-3-(4-pyridin-3-yl-thiazol-2-ylamino)-phenyl]-urea] returned an IC50 of less than 10 µM.

Take `CN(CCOc1ccc(CC2SC(=O)NC2=O)cc1)c1ccccn1` (centres unmarked) [Rosiglitazone, rosiglitazone]: in the data set on male db/db mice (setting [2]), the “Cholesterol Effect (%)” value is given as 19%, the “Glucose Effect (%)” value turned out to be 59%, the “Insulin Effect (%)” value came out at 77% and the “NEFA Effect (%)” value is listed as 63%. Further, in the data set with male db/db mice (setting [2]), the “Triglycerides Effect (%)” value is 71%. This compound returned an NEFA in the data set on male db/db mice (serum non esterified fatty acids, male db/db mice, 10 mg/kg p.o. once daily for 5 days, T5, mean ± SEM, n = 5) of 0.31 ± 0.061 mM. Moreover, in the data set with male db/db mice (setting [3]), the Cholesterol is 2.74 ± 0.47 mM, the Glucose was 11.25 ± 2.65 mM, the Insulin is 0.82 ± 0.27 nM and the Triglycerides is reported as 0.46 ± 0.10 mM.

In the case of `Cc1ccc(NC(=O)c2ccc(-c3ccncc3)cc2)cc1Nc1nc(-c2cccnc2)cs1` [Compound 046, N-[4-Methyl-3-(4-pyridin-3-yl-thiazol-2-ylamino)-phenyl]-4-pyridin-4-yl-benzamide], the melting point is 254 to 256 °C.

On to `Cc1ccc(NC(=O)c2cccc(N3CCN(C)CC3)c2)cc1Nc1nc(-c2cccnc2)cs1` [Compound 089, 3-(4-Methyl-piperazin-1-yl)-N-[4-methyl-3-(4-pyridin-3-yl-thiazol-2-ylamino)-phenyl]-benzamide], for which the IC50 in data set [1] is less than 10 µM.

In data set [1], `Cc1ccc(NC(=O)Nc2ccc(OC(F)F)cc2)cc1Nc1nc(-c2cccnc2)cs1` [Compound 021, 1-(4-Difluoromethoxy-phenyl)-3-[4-methyl-3-(4-pyridin-3-yl-thiazol-2-ylamino)-phenyl]-urea] yielded an IC50 of less than 10 µM.

Regarding `Cc1ccc(NC(=O)c2cccc(OCCN3CCOCC3)c2)cc1Nc1nc(-c2cccnc2)cs1` [Compound 052], the melting point lay within 75 to 80 °C. The IC50 in data set [1] is less than 10 µM.

Take `Cc1ccc(NC(=O)c2ccc(C(C)(C)C)cc2)cc1Nc1nc(-c2cccnc2)cs1` [Compound 049, 4-tert-Butyl-N-[4-methyl-3-(4-pyridin-3-yl-thiazol-2-ylamino)-phenyl]-benzamide]: the melting point was in the range of 145 to 150 °C. The IC50 in data set [1] is less than 10 µM.

In turn, `Cc1ccc(NC(=O)c2cc(Br)c(CNCCCN3CCOCC3)c(Br)c2)cc1Nc1nc(-c2cccnc2)cs1` [Compound 087, 3,5-Dibromo-N-[4-methyl-3-(4-pyridin-3-yl-thiazol-2-ylamino)-phenyl]-4-[(3-morpholin-4-yl-propylamino)-methyl]-benzamide] registered a half-maximal inhibitory concentration (IC50) in data set [1] of less than 10 µM.

Turning to `Cc1ccc(NC(=O)c2cccc(N(C)C)c2)cc1Nc1nc(-c2cccnc2)cs1` [Compound 088, 3-Dimethylamino-N-[4-methyl-3-(4-pyridin-3-yl-thiazol-2-ylamino)-phenyl]-benzamide], the melting point lay within 197 to 198 °C. In data set [1], the IC50 is less than 10 µM.

With `Cc1ccc(NC(=O)c2ccc(C(C)N3CCN(C)CC3)cc2)cc1Nc1nc(-c2cccnc2)cs1` (centres unmarked) [Compound 082], the melting point is 153 to 155 °C. Moreover, the IC50 in data set [1] is less than 10 µM.

`Cc1ccc(NC(=O)Nc2cccc(F)c2)cc1Nc1nc(-c2cccnc2)cs1` [Compound 025, 1-(3-Fluoro-phenyl)-3-[4-methyl-3-(4-pyridin-3-yl-thiazol-2-ylamino)-phenyl]-urea] registered a melting point of 210 to 215 °C. In addition, the IC50 in data set [1] was less than 10 µM.

Compound `Cc1ccc(NC(=O)c2ccc3c(c2)OCO3)cc1Nc1nc(-c2cccnc2)cs1` [Compound 051] had a melting point of 130 to 132 °C. In data set [1], this compound registered an IC50 of less than 10 µM.

`Cc1ccc(NC(=O)c2ccc(CN3CCN(C)CC3)c(C(F)(F)F)c2)cc1Nc1nc(-c2cccnc2)cs1` [Compound 075] returned a melting point of 118 to 120 °C. In data set [1], this compound gave an IC50 of less than 10 µM.

As to `Cc1ccc(NC(=O)Nc2ccc(F)cc2)cc1Nc1nc(-c2cccnc2)cs1` [Compound 012, 1-(4-Fluoro-phenyl)-3-[4-methyl-3-(4-pyridin-3-yl-thiazol-2-ylamino)-phenyl]-urea], the IC50 in data set [1] was less than 10 µM.

In data set [1], `Cc1ccc(NC(=O)c2ccc(CN3CCN(C)CC3)c(Br)c2)cc1Nc1nc(-c2cccnc2)cs1` [Compound 078, 3-Bromo-4-(4-methyl-piperazin-1-ylmethyl)-N-[4-methyl-3-(4-pyridin-3-yl-thiazol-2-ylamino)-phenyl]-benzamide] came in with an IC50 of less than 10 µM.

In the case of `Cc1ccc(NC(=O)c2cccc(N3CCOCC3)c2)cc1Nc1nc(-c2cccnc2)cs1` [Compound 090, N-[4-Methyl-3-(4-pyridin-3-yl-thiazol-2-ylamino)-phenyl]-3-morpholin-4-yl-benzamide], the melting point lay in the range of 247 to 248 °C. Besides, the IC50 in data set [1] was less than 10 µM.

As for `Cc1ccc(F)c(C(=O)Nc2ccc(C)c(Nc3nc(-c4cccnc4)cs3)c2)c1` [Compound 048, 2-Fluoro-5-methyl-N-[4-methyl-3-(4-pyridin-3-yl-thiazol-2-ylamino)-phenyl]-benzamide], the melting point was 103 to 106 °C. For the same compound, the half-inhibitory concentration (IC50) in data set [1] is less than 10 µM.

`Cc1ccc(NC(=O)c2ccc(NS(=O)(=O)c3cccs3)cc2)cc1Nc1nc(-c2cccnc2)cs1` [Compound 044, N-[4Methyl-3-(4-pyridin-3-yl-thiazol-2-ylamino)-phenyl]-4-(thiophene-2-sulfonylamino)-benzamide] yielded a melting point of 230 to 233 °C.

Take `Cc1ccc(NC(=O)Nc2ccc(C)c(Nc3nc(-c4cccnc4)cs3)c2)cc1` [Compound 026, 1-[4Methyl-3-(4-pyridin-3-yl-thiazol-2-ylamino)-phenyl]-3-p-tolyl-urea]: the melting point fell in the range of 210 to 215 °C. Moreover, in data set [1], the concentration for half-maximal inhibition (IC50) was less than 10 µM.

Regarding `Cc1ccc(NC(=O)CCCN2CCOCC2)cc1Nc1nc(-c2cccnc2)cs1` [Compound 096, N-[4-Methyl-3-(4-pyridin-3-yl-thiazol-2-ylamino)-phenyl]-4-morpholin-4-yl-butyramide], the melting point was 116 to 120 °C. In data set [1], the IC50 is less than 10 µM.
